Source: ChEMBL document CHEMBL3091271, “Discovery of triazine mimetics as potent antileishmanial agents” (ACS Med Chem Lett, 2013)
Calls of active or inactive are those of the source. The rule behind the calls is not given here.

Assays:
[1] = (§1) Selectivity index, ratio of CC50 to African green monkey Vero cells to IC50 for amastigote stage of Leishmania donovani MHOM/IN/80/Dd8; type: functional
[2] = Cytotoxicity against African green monkey Vero cells assessed as cell viability after 72 hrs by MTT assay; type: cell-based; details: chlorocebus sabaeus
Leishmania donovani [3] = experiment: Antileishmanial activity against amastigote stage of Leishmania donovani MHOM/IN/80/Dd8 infected in mouse J-774A.1 cells after 72 hrs by luciferase reporter gene assay; type: functional, organism-based; details: MHOM/IN/80/Dd8, J774.A1, 72 h
J774.A1 [4] = experiment: Immunostimulatory activity in Leishmania infected mouse J774A1 cells assessed as downregulation of TGF-beta level at IC50 measured at 24 hrs by sandwich ELISA relative to untreated infected cell; type: functional
J774.A1 [5] = experiment: Immunostimulatory activity in Leishmania infected mouse J774A1 cells assessed as downregulation of TGF-beta level at IC50 measured at 48 hrs by sandwich ELISA; type: functional, cell-based
[6] = Immunostimulatory activity in Leishmania infected mouse J774A1 cells assessed as upregulation of TNF-alpha level at IC50 measured at 48 hrs by sandwich ELISA; type: functional, cell-based; details: J774.A1
[7] = Immunostimulatory activity in Leishmania infected mouse J774A1 cells assessed as upregulation of IL-12 level at IC50 measured at 48 hrs by sandwich ELISA; type: functional, cell-based; details: J774.A1
Syrian golden hamster = experiment: Toxicity in golden hamster infected with amastigote stage of Leishmania donovani MHOM/IN/80/Dd8 assessed as appearance of abnormal behavior at 50 mg/kg/day, ip measured for 5 days; type: organism-based, Mesocricetus auratus; parameters: route intraperitoneal; details: in vivo, 120 h
[8] = Immunostimulatory activity in Leishmania infected mouse J774A1 cells assessed as upregulation of IL-12 level at IC50 measured at 24 hrs by sandwich ELISA relative to untreated infected cell; type: functional, cell-based; details: J774.A1
[9] = Immunostimulatory activity in Leishmania infected mouse J774A1 cells assessed as upregulation of TNF-alpha level at IC50 measured at 24 hrs by sandwich ELISA relative to untreated infected cell; type: functional, cell-based; details: J774.A1
Leishmania donovani [10] = experiment: Antileishmanial activity against amastigote stage of Leishmania donovani MHOM/IN/80/Dd8 infected in golden hamster assessed as inhibition of parasite multiplication in splen at 50 mg/kg/day, ip administered for 5 days measured on day 7 by Giemsa staining relative to control; type: functional; details: MHOM/IN/80/Dd8, ip, route intraperitoneal
J774.A1 [11] = experiment: Immunostimulatory activity in Leishmania infected mouse J774A1 cells assessed as downregulation of IL-10 level at IC50 measured at 24 hrs by sandwich ELISA; type: functional, cell-based
J774.A1 [12] = experiment: Immunostimulatory activity in Leishmania infected mouse J774A1 cells assessed as increase in nitric oxide production at IC50 measured at 48 hrs by sandwich ELISA; type: functional, cell-based
J774.A1 [13] = experiment: Immunostimulatory activity in Leishmania infected mouse J774A1 cells assessed as increase in nitric oxide production at IC50 measured at 24 hrs by sandwich ELISA relative to untreated infected cell; type: functional
J774.A1 [14] = experiment: Immunostimulatory activity in Leishmania infected mouse J774A1 cells assessed as downregulation of IL-10 level at IC50 measured at 48 hrs by sandwich ELISA; type: functional, cell-based
Vero = experiment: as §1; type: functional

| Compound | IC50 (Leishmania donovani [3]) | Ratio CC50/IC50 [1] | CC50 at 72 h [2] | other results |
| --- | --- | --- | --- | --- |
| c1ccc(Nc2nc(NCCCCOc3nc(Nc4ccccc4)nc(N4CCOCC4)n3)nc(N3CCOCC3)n2)cc1 | 3.15 µM | 87.5 | 276 µM | – |
| CN1CCN(c2nc(NCCCCOc3nc(Nc4ccccc4)nc(N4CCN(C)CC4)n3)nc(Nc3ccccc3)n2)CC1 | 1.33 µM | 15.08 | 20.1 µM | – |
| Sodium stibogluconate | – | – | – | Ratio CC50/IC50 (Vero): 8.56 |
| CCN1CCN(c2nc(NCCCCOc3nc(Nc4ccccc4)nc(N4CCN(CC)CC4)n3)nc(Nc3ccccc3)n2)CC1 | 0.86 µM | 18.87 | 16.2 µM | – |
| Clc1nc(NCCCCOc2nc(Cl)nc(Nc3ccccc3)n2)nc(Nc2ccccc2)n1 | 10.3 µM | 0.75 | 7.74 µM | – |
| CCCCCCCCCCCCCCCCOP(=O)([O-])OCC[N+](C)(C)C [MILTEFOSINE] | 8.1 µM | 6.56 | – | – |
| c1ccc(Nc2nc(NCCCCOc3nc(Nc4ccccc4)nc(N4CCCc5ccccc54)n3)nc(N3CCCc4ccccc43)n2)cc1 | 8.98 µM | 1.9 | 17.1 µM | – |
| CCCCCNc1nc(NCCCCOc2nc(NCCCCC)nc(Nc3ccccc3)n2)nc(Nc2ccccc2)n1 | 6.46 µM | >61.92 | > 400 µM | – |
| c1ccc(Nc2nc(NCCCCOc3nc(Nc4ccccc4)nc(NC4CC4)n3)nc(NC3CC3)n2)cc1 | > 40 µM | – | – | – |
| CCCNc1nc(NCCCCOc2nc(Nc3ccccc3)nc(NC3CC3)n2)nc(Nc2ccccc2)n1 | 8.26 µM | 2.2 | 18.2 µM | – |
| CCCCNc1nc(NCCCCOc2nc(NCCCC)nc(Nc3ccccc3)n2)nc(Nc2ccccc2)n1 | 3.21 µM | >124.61 | > 400 µM | – |

More lines, main results first:

| IC50 (Leishmania donovani [3]) | Compound | Ratio CC50/IC50 [1] | CC50 at 72 h [2] | other results |
| --- | --- | --- | --- | --- |
| 3.51 µM | CC(C)Nc1nc(NCCCCOc2nc(Nc3ccccc3)nc(NC(C)C)n2)nc(Nc2ccccc2)n1 | >113.96 | > 400 µM | – |
| 2.91 µM | c1ccc(Nc2nc(NCCCCOc3nc(NCCN4CCOCC4)nc(Nc4ccccc4)n3)nc(NCCN3CCOCC3)n2)cc1 | 39.61 | 115 µM | – |
| 1.7 µM | c1ccc(Nc2nc(NCCCCOc3nc(NCCCN4CCOCC4)nc(Nc4ccccc4)n3)nc(NCCCN3CCOCC3)n2)cc1 | 8.11 | 13.8 µM | – |
| 1.99 µM | CCCNc1nc(NCCCCOc2nc(NCCC)nc(Nc3ccccc3)n2)nc(Nc2ccccc2)n1 | 108.58 | 216 µM | fold change (FC) (J774.A1 [4]): 1.8; Activity (J774.A1 [5]): inactive; Activity [6]: inactive; Activity [7]: inactive; Activity (Syrian golden hamster): Non-toxic; fold change (FC) [8]: 3; fold change (FC) [9]: 2; inhibition in vivo at 50 mg/kg/day (Leishmania donovani [10]): 74.4%; Activity (J774.A1 [11]): Active; Activity (J774.A1 [12]): inactive; fold change (FC) (J774.A1 [13]): 2; Activity (J774.A1 [14]): inactive |
| > 40 µM | c1ccc(Nc2nc(NCCCCCOc3nc(Nc4ccccc4)nc(N4CCOCC4)n3)nc(N3CCOCC3)n2)cc1 | – | – | – |
| 8.98 µM | Clc1nc(NCCCCCOc2nc(Cl)nc(Nc3ccccc3)n2)nc(Nc2ccccc2)n1 | 1.9 | 17.1 µM | – |
| 7.52 µM | c1ccc(Nc2nc(NCCCCOc3nc(Nc4ccccc4)nc(N4CCc5ccccc5C4)n3)nc(N3CCc4ccccc4C3)n2)cc1 | >53.19 | > 400 µM | – |
| 13.7 µM | N=C(N)c1ccc(OCCCCCOc2ccc(C(=N)N)cc2)cc1 [PENTAMIDINE] | 6.27 | 85.9 µM | – |
| 2.65 µM | CCCNc1nc(Nc2ccccc2)nc(OCCCCNc2nc(Nc3ccccc3)nc(NC3CC3)n2)n1 | >150.94 | > 400 µM | – |
| > 40 µM | CCCNc1nc(NCCCCCOc2nc(NCCC)nc(Nc3ccccc3)n2)nc(Nc2ccccc2)n1 | – | – | – |
| 0.77 µM | CC(C)(C)Nc1nc(NCCCCOc2nc(Nc3ccccc3)nc(NC(C)(C)C)n2)nc(Nc2ccccc2)n1 | 257.48 | 198 µM | Activity (Syrian golden hamster): Non-toxic; inhibition in vivo at 50 mg/kg/day (Leishmania donovani [10]): 62.6% |
